Results taken from patent US12479803B2, “Antimalarial compounds” (UNIVERSITY OF CENTRAL FLORIDA RESEARCH FOUNDATION, INC., priority 2019, dated 2025).
“Also recorded” adds a separate entry of the source. Where two headings read alike, the source gives them in different places. Marks after values point to notes of the source that are not given here.

Assays:
[1] = tested on: CQ-resistant (Dd2) strain of P. falciparum; conditions: value reported from another study; cited from earlier work
[2] = tested on: tightly synchronized Dd2 parasites; assay: Developmental stage specific action (Giemsa microscopy and flow cytometry); type: cell-based, Plasmodium falciparum; conditions: 5×EC50, treated at 6, 18, 30 and 42 h post-invasion
Method: Accurate definition of the timing of action of antimalarial agents could give valuable insights into the developmental growth and clinical clearance of the parasite. To further understand the antimalarial activity of arylvinylquinolines, the developmental stage specific action of the most promising compound 24 was determined by both microscopy and flow cytometry analysis. Tightly synchronized cultures were exposed to 5×EC50 concentration of compound 24 at 6, 18, 30 and 42 hours post-invasion (HPI) of the merozoites. Microscopic analysis of Giemsa-stained-thin smears and flow cytometric evaluation were performed at 12 h intervals.
In FIGS. 2A and 2B, the results are representative of three independent biological replicates.

[3] = Cytotoxicity assay using MTS in human hepatocytes; type: cell-based; conditions: human, HepG2 cells (human hepatocytes); Table 6B, unit inferred; footnote IC50 (HepG2); read-out: Cytotoxic activity HepG2 (converted)
HepG2 = assay: Cytotoxicity assay using MTS in human hepatocytes; type: cell-based; conditions: for SI, selectivity index = [IC50 (HepG2)/IC50 (Dd2)]: HepG2 versus Dd2
[4] = tested on: P. berghei ANKA strain expressing luciferase; assay: Survival of P. berghei ANKA infected mice (30 days)
Method: In light of in vitro metabolic stability and in vivo efficacy mentioned above, compound 24 s was also administered at 100 and 25 mg/kg to malaria infected mice, and the survival rate was evaluated for 30 days. […] BALB/c females were infected with P. berghei ANKA strain expressing luciferase and treated 4 h post-infection with 25 and 100 mg/kg orally once daily for 4 days.

[5] = tested on: CQ-resistant (Dd2) strain of P. falciparum; assay: In vitro antiplasmodial activity, SYBR Green I fluorescence assay, Dd2 strain; type: cell-based, Plasmodium falciparum
Method: (§1) A set of 104 new styrylquinoline derivatives were synthesized and investigated for in vitro their antimalarial activity. To test antimalarial activities, different dilutions of compounds were added to P. falciparum culture. Following 72 h incubation at 37° C. in an atmosphere containing 5% CO2, the inhibitory property of the compounds were determined by SYBR Green I fluorescence assay. Meanwhile, SARs studies were conducted.
The SAR studies were focused on improving the in vitro activity of 2-arylvinylquinolines against the CQ-resistant Pf Dd2 strain.

[6] = tested on: P. falciparum 3D7 strain (CQ-sensitive); assay: In vitro antiplasmodium activity, 3D7 strain; type: cell-based, Plasmodium falciparum; conditions: Table 6A, nM, footnote calls it IC50, read-out: Antiplasmodium activity 3D7 (converted)
Method: as §1

[7] = tested on: asynchronous Dd2 parasite cultures; assay: Kill kinetic experiments (rate of killing, parasitocidal/parasitostatic); type: cell-based, Plasmodium falciparum; conditions: 5×EC50 (Atovaquone 6.6 nM) for 6, 12, 24 and 48 h
Method: To study whether arylvinylquinolines exerted their antiplasmodial activity through a parasitocidal or parasitostatic mechanism, kill kinetic experiments in Dd2 strain were performed. […] After washing to remove the inhibitors at these time points, the growth of the cultures was continued to be assessed for 96 h.
FIGS. 3A, 3B, 3C, and 3D are examples according to various embodiments illustrating rate of killing and parasitocidal/parasitostatic activity determination of arylvinylquinolines. […] After each exposure, cultures were washed three times in RPMI, resuspended in culture media, and monitored for parasite growth daily for 4 days. DHA and Atovaquone (50 nM and 6.6 nM) were included as fast and slow acting controls, respectively. Parasitemia was determined by microscopy of Giemsa stained smear.

[8] = tested on: β-hematin crystal formation; assay: β-hematin inhibition experiment; type: biochemical; conditions: 100 μM hemin, 16 h at 37° C., up to 200 μM compound
Method: CQ and other aminoquinolines are known to fight against the malaria parasites by blocking hematin biocrystallization (hemozoin formation) through π-π stacking between the aminoquinoline scaffold and the heme. As a result, the accumulated toxic heme causes the parasite death by introducing oxidative membrane damage. β-hematin inhibition experiments were performed to determine possible mode of actions of arylvinylquinolines. FIG. 5A is an example according to various embodiments illustrating images of β-hematin crystals after incubation of 100 μM hemin, propionate buffer, phosphatidylcholine and, several concentrations of compound for 16 h at 37° C. […] In FIGS. 5A and 5B, the data are mean±SEM.

[9] = tested on: late stage (IV-V) gametocytes of 3D7 expressing luciferase parasite; assay: In vitro gametocytocidal activity, late stage; type: cell-based, Plasmodium falciparum; conditions: for IC50: late stage gametocytes, means and SEMs of three experiments
From the text: (§2) Late stage (IV-V) gametocytes are more refractory to antimalarial drugs than early-stage gametocytes and blood stage parasites, and thus fewer compounds are effective against late stage Pf gametocytes. […] FIGS. 4A and 4B are an examples according to various embodiments illustrating results showing the activity of compound 24 on gametocyte stages, based on an evaluation of the viability of gametocytes after the exposure of compound 24 on early (A) and late (B) gametocytes stages of 3D7 expressing luciferase parasite. In FIGS. 4A and 4B, EC50 data represent the means and SEMs of three experiments. Therefore, arylvinylquinolines represented good leads as new antimalarials with promising dual stage (blood and gametocyte) activity.

[10] = In vitro microsomal turnover assay (metabolic stability); conditions: for Clint / % remaining after 60 min: microsomes; for % remaining after 60 min: 1 h
Method: Selectivity of compounds were determined by cytoxicity assay using MTS [(3-(4,5-dimethylthiazol-2-yl)-5-(3-carboxymethoxyphenyl)-2-(4-sulfophenyl)-2H-tetrazolium) in human hepatocytes. The metabolic stability of compounds was determined in mouse liver microsomes using an NADPH-regenerating system. The aqueous solubility at pH 7.4 was determined by UV-visible absorption based method. The permeability was assessed by the in vitro double-sink parallel artificial membrane permeability assay 52 that is a model for the passive transport from the gastrointestinal tract into the blood stream.
To assess the metabolic stability, the selected compounds were subjected to an in vitro microsomal turnover assay with mouse liver microsomal preparations. This assay determines the percentage of the parent compound residues after 60 min incubation (Table 7).

[11] = tested on: P. berghei ANKA strain expressing luciferase; assay: Rodent malaria model, Peters' four-day test with IVIS luminescence; type: in vivo; conditions: once daily, po
Method: Phosphate salts of 24, 29 and 88 were assessed (referred to hereinafter as 24 s, 29 s, and 88 s) in female Swiss Webster mice infected with P. berghei ANKA strain since this strain produced histopathological and immunopathological features which were particularly similar to human cerebral malaria. […] FIG. 6B is an example according to various embodiments illustrating a chart showing the luminescence detected and quantified 7 days after infection of the Swiss Webster females shown in FIG. 6A, using an in vivo imaging system (IVIS). […] As observed from FIG. 6A-B, all these compounds completely cured malaria infection in mice when exposed to 100 mg/kg daily by p.o. administration in a standard Peters' four-day test, and no parasites visible in any of the tested mice were observed. […] Actually, this signal can also arise from dying parasites.

[12] = tested on: early stage (I-III) gametocytes of 3D7 expressing luciferase parasite; assay: In vitro gametocytocidal activity, early stage; type: cell-based, Plasmodium falciparum
From the text: as §2

[13] = mouse liver microsomes; value reported from an initial study; cited from earlier work
[14] = tested on: malaria infection in mice; conditions: cited from earlier work
[15] = Plasmodium falciparum, DD2, Table 6A, unit not given (text gives nM), footnote calls it IC50, read-out: Antiplasmodium activity Dd2 (converted)
[16] = Plasmodium falciparum, CQ-resistant (Dd2) strain, 72 h incubation, read-out: EC50 (nmol)
[17] = Plasmodium falciparum, Dd2 strain, read-out: EC50

Row | SMILES | stage-specific inhibition of P. falciparum growth [2] | IC50 [3] | SI, selectivity index = [IC50 (HepG2)/IC50 (Dd2)] (HepG2) | RI, resistance index = [IC50 (Dd2)/IC50 (3D7)] ([5]; Dd2 versus 3D7) | EC50 [5, 15] | EC50 [5, 16] | EC50 [5, 17] | EC50 ([6]; Plasmodium falciparum, 3D7) | rate of killing (parasitemia after exposure and wash-out) [7] | inhibitory activity towards β-hematin formation [8] | Projected t1/2 ([10]; mouse) | Clint ([10]; mouse) | % remaining after 60 min ([10]; mouse) | also measured
1 | C[C@@H]1CC[C@H]2[C@@H](C)C(=O)O[C@@H]3O[C@@]4(C)CC[C@@H]1[C@]32OO4 [Artemisinin] | – | – | – | – | – | – | – | – | – | – | – | – | – | EC50 [1]: 28 ± 6 nM
2 | CN(C)CCNc1cc(/C=C/c2ccc(C(F)(F)F)cc2)nc2ccc(Cl)cc12 [Compound 24] | blocked at the trophozoite stage | 11200 ± 1860 nM | 1031 | 0.6 | 10.9 ± 1.9 nM | 10.9 ± 1.9 nM | ≤ 15 nM | 16.8 ± 0.8 nM | remarkable reduction in parasitemias | weaker inhibitory activity; also recorded: very low activity | 1.737 h | 13.3 µL/min/mg | 67.1% | mice with 100% reduction of parasitemia ([4]; 25 mg/kg, po): 3/4; mice with 100% reduction of parasitemia ([4]; 100 mg/kg, p.o.): 5/5; tolerability / signs of toxicity ([4]; infected mice, 25 and 100 mg/kg p.o.): without apparent signs of toxicity; IC50 ([5]; Plasmodium falciparum, Dd2 strain): ≤ 15 nM; IC50 ([9]; Plasmodium falciparum, 3D7): 394 ± 99.4 nM; EC50 ([9]; Plasmodium falciparum, 3D7, read-out: Pf Gametocyte EC50 (late stage)): 394 ± 99.4 nM; in vivo efficacy (efficacious dose) [11]: 25 mg/kg; IC50 ([12]; Plasmodium falciparum, 3D7, read-out: Early stage IC50 (nM)): 472 ± 18.4 nM; EC50 ([12]; Plasmodium falciparum, 3D7, read-out: Pf Gametocyte EC50 (early stage)): 472 ± 18.4 nM
3 | CN1CCN(CCNc2cc(/C=C/c3ccc(F)cc3)nc3ccc(Cl)cc23)CC1 [Compound 86] | stage-specific action at the trophozoite phase | – | 209 | – | – | – | – | – | remarkable reduction in parasitemias | much weaker than that of CQ | – | 23.0 µL/min/mg | 50.2% | IC50 (HepG2): 3200 ± 491 nM; RI, resistance index = [IC50 (Dd2)/IC50 (3D7)] [5]: 1; EC50 ([5]; CQ-resistant (Dd2) strain, 72 h incubation, read-out: EC50 (nmol)): 15.3 ± 3.4 nM; EC50 ([5]; Table 6A, unit not given (text gives nM), footnote calls it IC50, read-out: Antiplasmodium activity Dd2 (converted)): 15.3 ± 3.4 nM; EC50 [6]: 15.7 ± 2.9 nM; IC50 [9]: 2500 ± 424 nM; Projected t1/2 [10]: 1 h; IC50 ([12]; early stage gametocytes, means and SEMs of three experiments, read-out: Early stage IC50): 910 ± 314 nM
4 | CCN(CC)CCCC(C)Nc1cc(/C=C/c2ccc([N+](=O)[O-])cc2)nc2ccc(OC)cc12 (stereo not shown) [Compound according to Formula 1, reference compound] | – | 12920 ± 70.1 nM | 193 | 0.6 | 67 ± 8 nM | 67 ± 8 nM | 67 ± 8 nM | 119 ± 3 nM | – | – | 0.692 h | 33.4 µL/min/mg | 36.7% | % remaining after 60 min [13]: 47.8^a %; Projected t1/2 (min) [13]: 56.2^a min; SI, selectivity index = [IC50 (HepG2)/IC50 (Dd2)] (HepG2; listed as Compd. of Formula 1): 192; mice cured of malaria infection ([14]; 100 mg/kg twice daily po, previous study): 4/5; in vivo efficacy (efficacious dose) ([14]; twice daily, po): 100 mg/kg
